# Results taken from patent publication US20060269995A1, “Novel assays utilizing nicotinic acetylcholine receptor subunits” (priority 2005, published 2006).
# What was measured:
# [1] = system: Drosophila melanogaster flies of the Oregon wild-type strain; test: Adult fly mortality screen, wild-type flies; assay type: in vivo; settings: 100 ppm in 10% sucrose via cotton wick, 72 hours post-treatment
# Procedure: (§1) Ten adult Drosophila melanogaster flies (5 males and 5 females) of the Oregon wild-type strain and ten adult flies of a spinosyn-resistant strain were used per treatment. Two sets (of 10 flies) were set-up per treatment. Stocks of spinosyn A and a 21-butenyl-spinosyn analog were formulated at 1000 ppm in 2:1 acetone:water and then diluted to the required concentration in 10% sucrose. Vials received 500 ul of treatment (or solvent for controls) via cotton wicks (approximately ¼ inch) and flies were added to each vial and capped with a cotton plug. Flies were monitored over 72 hours post-treatment while being maintained at room-temperature with a 12:12 light:dark cycle.
# (§2) In addition, the spinosyn A resistant flies were >100-fold resistant (based on LD50) to the new class of spinosyns, represented by the 21-butenyl spinosyns.
# [2] = system: Drosophila melanogaster flies of a spinosyn-resistant strain; test: Adult fly mortality screen, spinosyn-resistant flies; assay type: in vivo
# Procedure: as §1, §2
# [3] = system: 30D/ric-3; assay type: cell-based, Drosophila melanogaster; settings: spinosyn A 10 μM for 60 seconds, −60 mV, peak current; also: key: '−' indicates a negligible current was induced; '+' indicates a small amplitude current; '++' indicates a moderate amplitude current; '++++' indicates a large amplitude current
# Procedure: (§3) Xenopus laevis (Xenopus 1, Ann Arbor, Mich.; Nasco, Fort Atkinson, Wis.) were anesthetized by bathing in a solution of 2 g/l tricaine methane sulfonate, and oocytes were surgically removed from the frog and placed in a culture solution that consisted of 96 mM NaCl, 2 mM KCl, 1.8 mM CaCl2, 1 mM MgCl2, 5 mM HEPES, 2.5 mM Na-pyruvate, 100 units/ml penicillin, and 0.1 mg/ml streptomycin, pH 7.6. Oocytes were dispersed in a nominally zero Ca^2+ protease treatment solution to defolliculate the oocytes. The protease treatment solution consisted of either 88 mM NaCl, 2.5 mM KCl, 1 mM MgCl2, 5 mM HEPES, 2.5 mM Na-pyruvate, 100 units/ml penicillin, and 0.1 mg/ml streptomycin, pH 7.6 plus 1.5 mg/ml collagenase IA (Sigma Chemical Co., St. Louis, Mo.). After isolation, the oocytes were thoroughly rinsed and returned to the above Ca^2+ containing culture solution and stored at 18° C.
# (§4) Synthesis of cRNA was performed as follows: Plasmid DNA was linearized with one of the following restriction enzymes; Not I, Xho I or Nhe I. The linearized DNA was subsequently used as template for cRNA synthesis using T7 mMessage mMachine kit (Ambion, Austin, Tex.) following the manufacturer's instructions.
# (§5) Micropipettes for injection of cRNA into Xenopus oocytes were pulled on a DMZ-Universal Puller (Zeitz-Instruments, München, Germany). The cRNA to be injected was drawn up into the micropipette with negative pressure. Approximately 10-50 ng of cRNA was injected into the oocytes by applying positive pressure using a Nanoject II oocyte injector (Drummond Scientific Co., Broomall, Pa.). Nucleic acid was introduced into the oocytes as follows: (1) nicotinic acetylcholine receptor alpha-6 subunit subunit (30D) (2) nicotinic alpha-7 receptor subunit (34E); (3) nicotinic acetylcholine receptor alpha-6 subunit and C. elegans ric-3 (30D and ric-3); (4) nicotinic alpha-7 receptor subunit and C. elegans ric-3 (34E and ric-3); (5) nicotinic acetylcholine receptor alpha-6 subunit and nicotinic alpha-7 receptor subunit (30D and 34E); and, (6) nicotinic acetylcholine receptor alpha-6 subunit, nicotinic alpha-7 receptor subunit and C. elegans ric-3 (30D, 34E and ric-3).
# (§6) The control external solution for voltage clamp recordings consisted of 88 mM NaCl, 1 mM KCl, 0.41 mM CaCl2, 2.4 mM NaHCO3, 0.3 mM Ca(NO3)2, 0.82 mM MgSO4·7 H2O, and 15 mM HEPES, pH 7.6. The recording chamber was continuously perfused with a gravity-fed perfusion system. Nicotine (1 mM) was added to the external solution and then added to the perfusate for 30 seconds. Then, nicotine was washed from the external solution a minimum of 10 minutes. Thereafter, spinosyn A was dissolved in dimethylsulfoxide (DMSO) and then dissolved in the external solution at a final concentration of 10 μM and then added to the perfusate for 60 seconds. Then, the spinosyn A was washed from the external solution. The final concentration of DMSO never exceeded 0.1% (v/v).
# [4] = system: 34E (nicotinic acetylcholine receptor alpha-5 subunit); assay type: cell-based, Drosophila melanogaster; settings: spinosyn A 10 μM for 60 seconds; −60 mV; peak current; 34E; also: key: '−' indicates a negligible current was induced; '+' indicates a small amplitude current; '++' indicates a moderate amplitude current; '++++' indicates a large amplitude current
# Procedure: as §3, §4, §5, §6
# [5] = system: 34E/ric-3; assay type: cell-based, Drosophila melanogaster; settings: spinosyn A 10 μM for 60 seconds; −60 mV; peak current; 34E/ric-3; also: key: '−' indicates a negligible current was induced; '+' indicates a small amplitude current; '++' indicates a moderate amplitude current; '++++' indicates a large amplitude current
# Procedure: as §3, §4, §5, §6
smiles,measurement,setting,value
"CC[C@H]1CCC[C@H](O[C@H]2CC[C@H](N(C)C)[C@@H](C)O2)[C@@H](C)C(=O)C2=C[C@@H]3[C@@H](C=C[C@@H]4C[C@@H](O[C@@H]5O[C@@H](C)[C@H](OC)[C@@H](OC)[C@H]5OC)C[C@@H]34)[C@@H]2CC(=O)O1 [Spinosyn A, spinosyn A]",mortality,[1],all wild-type flies exhibited mortality
same,mortality,"[2]; 100 ppm in 10% sucrose via cotton wick, 72 hours post-treatment, spinosyn-resistant flies",no significant mortality
same,resistance of spinosyn A resistant flies compared to wild-type flies (based on LD50),"[2]; dose-response data, LD50, resistant vs wild-type flies",at least 100 fold
same,Spinosyn A Response,[3],+
same,Spinosyn A Response,[4],−
same,Spinosyn A Response,[5],−
